Experimental data taken from patent US11891405B2, “Furo[3,4-b]pyrrole-containing BTK inhibitor” (CHIA TAI TIANQING PHARMACEUTICAL GROUP CO., LTD., priority 2018, dated 2024).

How the values were obtained:
ITK = target: T1, ITK (Homo sapiens, UniProt Q08881); assay: Screening for ITK inhibition activity; type: biochemical
T1 sequence (Q08881 1-620): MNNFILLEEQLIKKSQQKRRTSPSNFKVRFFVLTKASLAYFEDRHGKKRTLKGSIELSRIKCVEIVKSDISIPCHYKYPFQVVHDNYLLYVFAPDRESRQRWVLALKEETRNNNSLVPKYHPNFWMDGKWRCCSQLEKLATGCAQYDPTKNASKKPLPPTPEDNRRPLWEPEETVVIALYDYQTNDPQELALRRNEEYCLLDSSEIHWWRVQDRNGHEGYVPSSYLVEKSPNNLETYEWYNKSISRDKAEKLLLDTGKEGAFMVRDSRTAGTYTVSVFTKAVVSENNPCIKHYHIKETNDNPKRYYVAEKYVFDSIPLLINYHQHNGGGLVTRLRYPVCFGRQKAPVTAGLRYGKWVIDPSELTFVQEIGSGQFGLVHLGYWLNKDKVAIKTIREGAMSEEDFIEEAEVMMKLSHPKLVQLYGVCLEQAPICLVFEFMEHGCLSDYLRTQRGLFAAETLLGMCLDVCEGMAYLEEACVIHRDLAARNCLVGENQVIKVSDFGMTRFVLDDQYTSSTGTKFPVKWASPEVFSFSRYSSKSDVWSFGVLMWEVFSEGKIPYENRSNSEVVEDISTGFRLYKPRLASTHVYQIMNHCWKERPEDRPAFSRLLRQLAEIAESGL
Protocol: 1.4 Screening for ITK ([…]) Inhibition Activity
50 ng/μL ITK stock solution was diluted with kinase buffer (50 mM HEPES, 10 mM MgCl2, 2 mM DTT, 1 mM EGTA, 0.01% Tween 20), and 6 μL of 1.67× working solution at […] (final concentration: 0.05ng/μL) was added to each well. Different compounds dissolved in DMSO were added to the wells using a nanoliter pipettor, resulting in the final concentration of 1000 nM to 0.24 nM (4-fold gradient for 7 concentrations in total), and blank control wells (without enzyme) and negative control wells (with enzyme, plus vehicle DMSO) were set. After enzyme was reacted with the compound or vehicle for 30 min, 5×ATP at 50 μM (final concentration: 10 μM) prepared with kinase buffer was mixed with 5× substrate at 0.5 μM (final concentration: 0.1 μM, ULight-poly GT) at a ratio of 1:1, and the mixture was added to each well at 4 μL/well. After being sealed with a film, the plate was incubated at room temperature for 2 h, then 5 μL of 4×EDTA at 40 mM (final concentration: 10 mM) was added to each well. After the plate was incubated for 5 min at room temperature, 5 μL of 4×detection reagent at 8 nM (final concentration: 2 nM, Eu-anti-phospho-tyrosine antibody) was added to each well, followed by incubation at room temperature for 1 h. The plate was read using a PE Envision multi-functional microplate reader (excitation: 320 nm, emission: 665 nm), and IC50 was calculated by four-parameter fitting.

EGFR (WT) = EGFR (WT) (Homo sapiens, UniProt P00533); assay: Screening for EGFR inhibitory activity; type: biochemical
Chain of EGFR (WT) (P00533 25-1210, species assumed): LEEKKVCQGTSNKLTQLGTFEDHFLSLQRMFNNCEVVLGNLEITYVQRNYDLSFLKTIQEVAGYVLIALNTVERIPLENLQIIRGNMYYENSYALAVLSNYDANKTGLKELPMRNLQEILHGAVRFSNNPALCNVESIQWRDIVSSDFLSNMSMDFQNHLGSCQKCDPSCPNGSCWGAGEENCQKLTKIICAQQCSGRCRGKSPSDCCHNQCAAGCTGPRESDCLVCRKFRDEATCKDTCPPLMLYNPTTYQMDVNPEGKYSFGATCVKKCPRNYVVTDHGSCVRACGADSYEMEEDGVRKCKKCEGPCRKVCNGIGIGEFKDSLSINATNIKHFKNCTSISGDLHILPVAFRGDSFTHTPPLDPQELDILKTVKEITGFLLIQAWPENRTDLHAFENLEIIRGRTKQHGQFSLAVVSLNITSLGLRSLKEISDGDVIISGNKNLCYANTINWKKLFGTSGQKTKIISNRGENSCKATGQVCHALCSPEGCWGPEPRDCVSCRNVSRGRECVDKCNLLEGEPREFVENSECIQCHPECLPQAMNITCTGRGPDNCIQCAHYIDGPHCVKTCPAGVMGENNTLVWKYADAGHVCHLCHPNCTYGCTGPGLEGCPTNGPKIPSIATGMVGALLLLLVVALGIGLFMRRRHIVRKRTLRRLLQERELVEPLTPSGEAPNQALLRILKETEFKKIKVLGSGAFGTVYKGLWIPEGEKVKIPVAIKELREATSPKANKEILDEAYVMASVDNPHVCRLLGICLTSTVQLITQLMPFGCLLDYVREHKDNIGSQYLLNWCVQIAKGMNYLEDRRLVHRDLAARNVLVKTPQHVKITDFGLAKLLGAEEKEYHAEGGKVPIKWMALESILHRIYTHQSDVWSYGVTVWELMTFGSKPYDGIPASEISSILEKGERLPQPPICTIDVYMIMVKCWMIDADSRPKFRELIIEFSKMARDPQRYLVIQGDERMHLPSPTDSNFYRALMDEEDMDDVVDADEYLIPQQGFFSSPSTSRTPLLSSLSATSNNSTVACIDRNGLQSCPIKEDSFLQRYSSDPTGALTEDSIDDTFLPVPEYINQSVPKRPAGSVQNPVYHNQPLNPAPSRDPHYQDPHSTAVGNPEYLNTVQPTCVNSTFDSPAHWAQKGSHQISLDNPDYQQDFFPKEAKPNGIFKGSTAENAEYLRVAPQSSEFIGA
Protocol: 1.2 Screening for EGFR (Epidermal Growth Factor Receptor) Inhibitory Activity
50 ng/μL EGFR (WT) stock solution was diluted with kinase buffer (50 mM HEPES, 10 mM MgCl2, 2 mM DTT, 1 mM EGTA, 0.01% Tween 20), and 6 μL of 1.67× working solution at 0.01336 ng/μL (final concentration: 0.008 ng/μL) was added to each well. Different compounds dissolved in DMSO were added to the wells using a nanoliter pipettor, resulting in the final concentration of 1000 nM to […] (4-fold gradient for 7 concentrations in total), and blank control wells (without enzyme) and negative control wells (with enzyme, plus vehicle DMSO) were set, 2 replicate wells for each well. After enzyme was reacted with the compound or vehicle for 10 min, 5× ATP at 25 μM (final concentration: 5 μM) prepared with kinase buffer was mixed with 5× substrate at 0.5 μM (final concentration: 0.1 μM, ULight-poly GT) at a ratio of 1:1, and the mixture was added to each well at 4 μL/well. After being sealed with a film, the plate was incubated at room temperature for 2 h, then 5 μL of 4×EDTA at 40 mM (final concentration: 10 mM) was added to each well. After the plate was incubated for 5 min at room temperature, 5 μL of 4× detection reagent at 8 nM (final concentration: 2 nM, Eu-anti-phospho-tyrosine antibody) was added to each well, followed by incubation at room temperature for 1 h. The plate was read using a PE Envision multi-functional microplate reader (excitation: 320 nm, emission: 665 nm), and IC50 was calculated by four-parameter fitting.

[1] = Mouse liver microsome metabolic stability; type: in vitro ADME; settings: mouse liver microsomes
Protocol: 3.2 Mouse Liver Microsome Assay
300 μL of final incubation system: 30 μL of mouse liver microsomes (protein concentration: 5 mg/mL, XENOTECH, USA), 30 μL of NADPH (10 mM)+MgCl2 (5 mM), 3 μL of the substrate, i.e., the example compound (dissolved in 50% aqueous acetonitrile solution, 100 μM), and 237 μL of PBS buffer, wherein the proportion of the organic solvent (acetonitrile) was 0.5%. Each tube was added with 270 μL of a mixed solution of substrate and enzyme, and after being pre-incubated at 37° C. for 5 min, added with 30 μL of NADPH+MgCl2. Then 50 μL of the mixture was taken at 0 min, 15 min, 30 min and 60 min, and added with 300 μL of diazepam glacial acetonitrile (20 ng/mL) containing an internal standard to quench the reaction. The reaction mixture was vortexed for 5 min, and centrifuged (13,000 rpm, 4° C.) for 10 min. 100 μL of supernatant was pipetted into a sample vial, from which 1 μL of supernatant was injected and analyzed by LC-MS/MS, and the residual percentage was calculated.

IC50 (ITK) [µM]	IC50 (EGFR (WT)) [µM]	Mouse (MLM) Remaining % (T = 60 min) [1] [%]	SMILES
> 1	> 1	32	CC#CC(=O)N1[C@@H]2COC[C@@H]2C[C@H]1c1nc(-c2ccc(C(=O)Nc3cc(C(F)(F)F)ccn3)cc2F)c2c(N)nccn12 [Compound I-4, 4-(8-AMINO-3-((2S,3AR,6AS)-1-(BUT-2-YNOYL)HEXAHYDRO-1H-FURO[3,4-B]PYRROL-2-YL)IMIDAZO[1,5-A]PYRAZIN-1-YL)-3-FLUORO-N-(4-(TRIFLUOROMETHYL)PYRIDIN-2-YL)BENZAMIDE]
> 1	> 1	55.7	Nc1nccn2c([C@@H]3C[C@H]4COC[C@H]4N3C(=O)C3CC3)nc(-c3ccc(C(=O)Nc4cc(C(F)(F)F)ccn4)cc3F)c12 [Compound I-7, 4-(8-AMINO-3-((2S,3AR,6AS)-1-(CYCLOPROPANECARBONYL)HEXAHYDRO-1H-FURO[3,4-B]PYRROL-2-YL)IMIDAZO[1,5-A]PYRAZIN-1-YL)-3-FLUORO-N-(4-(TRIFLUOROMETHYL)PYRIDIN-2-YL)BENZAMIDE]
> 1	0.107	89	C=CC(=O)N1[C@@H]2COC[C@@H]2C[C@H]1c1nc(-c2ccc(C(=O)Nc3ccccn3)cc2)c2c(N)nccn12 [Compound I-3, 4-(3-((2S,3AR,6AS)-1-ACRYLOYLHEXAHYDRO-1H-FURO[3,4-B]PYRROL-2-YL)-8-AMINOIMIDAZO [1,5-A]PYRAZIN-1-YL)-N-(PYRIDIN-2-YL)BENZAMIDE]
> 1	> 1	90	CC#CC(=O)N1[C@@H]2COC[C@@H]2C[C@H]1c1nc(-c2ccc(C(=O)Nc3ccccn3)cc2)c2c(N)nccn12 [Compound I-1, 4-(8-amino-3-((2S,3aR,6aS)-1-(but-2-ynoyl)hexahydro-1H-furo[3,4-b]pyrrol-2-yl)imidazo [1,5-a]pyrazin-1-yl)-N-(pyridin-2-yl)benzamide]
